Legend:
SK3/KCa2.3 channel = SK3/KCa2.3 channel (Homo sapiens, UniProt Q9UGI6); assay: Whole-cell patch clamp on HEK293 cells expressing SK3; assay type: cell-based; parameters: expressed in transfected cells; host or cells: HEK293, lentiviral transduction, clonal selection
Description: The percentages of inhibition represent the ratio (SK3 current amplitude and chord conductance (in the presence of 10 μM JPH1701)/SK3 current amplitude in control experiments). Black bars show current at 0 mV and grey bars indicate the chord conductance. […] Columns, mean, bars, SEM, (5 cells for racemic mix and 4 cells for + and − forms).
MDA-MB-435s and HEK293 cells were transduced with lentiviral vector at multiplicities of infection (MOI) of 1 to 3 in the presence of polybrene (4 μg/ml, Sigma).
Experiments were performed with cells seeded into 35-mm Petri dishes at 3000 cells per cm2. All experiments were performed using the conventional whole-cell recording configuration of the patch-clamp technique as previously described. PCa solution was 7 and 6.4 respectively for MDA-MB-435s and HEK293-SK3/KCa2.3 cells.
Briefly, experiments were conducted using Axopatch 200B patch-clamp amplifier (Axon Instrument) and data, digitized with 1322-A Digidata converter (Axon Instrument), were stored on a computer using Clampex of pClamp 9.2 software (Axon Instru-ment). The patch-clamp data was analyzed using both Clampfit 9.2 and Origin 7.0 software (Microcal Inc., Northampton, Mass., USA).
The pipette solution for the whole-cell recordings contained (in mM): K-glutamate 125, KCl 20, MgCl2 1, Mg-ATP 1, HEPES 10, and pH was adjusted to 7.2 with KOH and various concentrations of CaCl2 and EGTA were added to obtain calculated pCa=7 (0.37 mM CaCl2 and 10 mM EGTA) or pCa=6.4 (0.7 mM CaCl2 and 1 mM EGTA).
We next developed HEK cells expressing SK3/KCa2.3 channel in order to test directly analogues on SK3 activity measured using patch-clamp technique (FIG. 8). […] The JPH1701-induced inhibition of SK3 current was analysed at 0 mV and the entire time course of the experiment is depicted in FIG. 8A.
Current activity has been measured in HEK 293 LvSK3 and in MDA-MB-435s cells. The percentages represent the inhibition of current and of conductance by compounds on SK3 channel in HEK 293 cells.

MDA-MB-435s-luc cells = assay: Mammary fat pad (MFP)-model tumor; assay type: in vivo, NMRI nude mice; settings: 15 mg/kg i.v. three times a week
Description: FIG. 10. Anti-metastatic effect of JPH1701 on experimental metastasis model. Two millions of MDA-MB-435s-luc cells pre-treated for 24 hours with JPH1701 (1 μM) or vehicle were grafted in MFP of NMRI/Nude mice. Mice were treated three times a week with JPH1701 at 15 mg/kg in i.v. or with vehicle during all the experiments (14-15 weeks). The primary tumor was surgical removed when its volume attempted 500 mm3 (6-7 weeks post-graft). Mice were euthanized 7-8 weeks after surgical removed of the primary tumor. FIG. 10A-B) In vivo BLI of metastases from mice treated with vehicle (FIG. 10A) or with JPH1701 (FIG. 10B) before euthanasia. FIG. 10C) Number of tissue with metastases detected ex vivo by bioluminescence (including lymph nodes, lungs, rachis and bone legs) after euthanasia. FIG. 10D) Metastatic score of mice treated with vehicle or with JPH1701. Two parameters were used to assess the metastatic score of each mouse: (i) Number of tissue or organ with metastases detected ex vivo by BLI and (ii) BLI intensity (photon/min) of each metastasis. […] The score of each cohort (sum of individually score) represents the degree of metastatic development assessed in vivo by BLI.
Two millions of MDA-MB-435s-luc cells pre-treated for 24 hours with JPH1701 (1 μM) or vehicle were grafted in MFP of NMRI/Nude mice. […] Two weeks post-graft, primary tumors were measured, weekly, during 6 weeks in three dimensions with a caliper and tumor volume was calculated (black circles: vehicle, open circles: JPH1701). […] Two weeks post-graft, the number of cancer cells in the primary tumor was evaluated weekly during 6 weeks by BLI imaging (black circles: vehicle, open circles: JPH1701). […]
The growth of primary tumors was weekly evaluated by caliper measurement and by bioluminescence imaging (BLI). The tumor volume was calculated as length×width×depth and the primary tumor was surgical removed when its volume attempted 500 mm3 (6-7 weeks post graft). Mice were euthanized 8 weeks after tumor excision and metastases were detected ex vivo by bioluminescence imaging in lymph nodes, lungs, rachis, and bone legs. […]

hexadecyloxy-2-O-methyl-sn-glycerol-lactose [JPH1701]
Effect on SK3 current amplitude at 0 mV (SK3/KCa2.3 channel; 10 μM, FIG. 9B, ranking SK3>SK1): significantly reduced | Reduction of the amplitude of the SK3 current at 0 mV (SK3/KCa2.3 channel; 10 μM, after 120 sec): about 70% | Time needed to reduce 50% of the amplitude of the current (SK3/KCa2.3 channel; 0.3, 1 and 10 μM, whatever the concentration): approximately 40 sec | Conductance decreasing (SK3/KCa2.3 channel; HEK 293 LvSK3 cells): 66.1 ± 1.5% | Inhibition of I at 0 mV (SK3/KCa2.3 channel; HEK 293 LvSK3 cells, 10 μM stated for JPH1701): 70.1 ± 1.4% | Metastatic score versus vehicle (Rank Sum Test) (MDA-MB-435s-luc cells; 14-15 weeks, FIG. 10D): significantly different | Number of cancer cells in the primary tumor (BLI) versus vehicle (MDA-MB-435s-luc cells; 6 weeks, FIG. 12B): did not highlighted any significant difference | Time course of primary tumor volume versus vehicle (MDA-MB-435s-luc cells; over 6 weeks, FIG. 12A): no difference

— patent US9161944B2, “Method for preventing cancer metastasis” (INSERM (INSTITUT NATIONAL DE LA SANTE ET DE LA SANTE ET DE …, priority 2010, dated 2015)
